Earlier results as cited in patent US20170304358A1, “PRIMARY AND SECONDARY PREVENTION OF DEMENTIAS AND SUICIDE WITH TRACE DOSE LITHIUM” (priority 2014, published 2017).

Experiments:
[1] = test system: cognition in persons with MCI; details: micro-doses (<0.28 mg/d of lithium carbonate)
[2] = standard doses of lithium

| SMILES | benefit for cognition in MCI [1] | adverse side effects [2] |
| --- | --- | --- |
| O=C([O-])[O-].[Li+].[Li+] [Lithium carbonate, lithium carbonate] | some benefit for cognition | – |
| [Li] [lithium] | – | renal toxicity |
